The text below walks through data of US12702671B2, “Calcineurin inhibitors of the setron family for the treatment of hearing loss” (SENSORION, priority 2015, dated 2026).

Each structure is given as a SMILES string. “Also recorded” adds a separate entry of the source.

Data set [1] has as its system acoustic trauma induced hearing loss. Kind of data set: Distortion product otoacoustic emissions (DPOAE) amplitudes after acoustic trauma. Conditions: i.p. daily for 14 days after acoustic trauma; same doses as E4. In kind it is in vivo, Wistar rats. On the procedure:
(§1) All experiments were performed using 7 week old male Wistar rats (CERJ, Le Genest, France) in accordance with the French Ministry of Agriculture regulations and European Community Council Directive no. 86/609/EEC, OJL 358. The rats were fed a standard diet ad libitum and maintained on a 12 h light-dark cycle.
(§2) Auditory Brainstem Reponses (ABR) and Distortion Product Otoacoustic Emissions (DPOAE) were recording using a RZ6 Auditory Workstation (Tucker-Davis Technologies, Alachua, FL, USA) with animals deeply anesthetized using 90 mg/kg ketamine and 10 mg/kg xylazine and placed on a 35° C. recirculating heating pad inside a sound attenuating cubicle (Med Associates Inc., St. Albans, VT, USA) throughout the experiment.
DPOAEs were recorded and using ER10B+ Low Noise DPOAE microphone (Etymotic Research, Inc., Elk Grove Village, IL, USA) with acoustic stimuli delivered by two calibrated MF-1 speakers in closed-field configuration (Tucker-Davis Technologies, Alachua, FL, USA). DPOAEs were recorded at fixed stimulus levels (L1=L2=70 dB SPL), with an f2/f1 ratio of 1.2. Responses were recorded at 4, 8, 16, 24 and 32 kHz.
(§3) Animals were exposed to 121 dB octave band noise (8-16 kHz) for 2 h in groups of 4 rats, placed in individual compartments of a custom built circular cage placed on a 30 cm diameter platform rotating at 3 turns/minute (Aqila Innovation, Valbonne, France). The calibrated octave band noise generated by the RZ6 SigGen software was further amplified by a Crown D-75 amplifier in bridge mode (Crown Audio, Elkhart, IN, USA) and delivered by four Beyma CP16 compression tweeters (Acustica Beyma S. L., Moncada, Valencia, Spain) positioned 39 cm above the rotating platform, each 10 cm from the platform center.
(§4) Animals were treated by intraperitoneal injection daily for 14 days beginning immediately after acoustic trauma induction and subsequently repeated every 24 hours. The setron compounds granisetron HCl, ondansetron HCl, tropisetron HCl and azasetron HCl (Tocris Bioscience, Bristol, UK) were delivered dissolved in saline solution (1.6 mL/kg) while Tacrolimus (Selleck Chemicals, Houston, TX, USA) was dissolved in solution composed of 10% ethanol-100%/10% Kolliphor EL/1% Tween 80/79% saline (1.0 mL/kg). Placebo treated animals received injections of 1.6 mL/kg saline following the same treatment schedule.
(§5) Statistical analysis was performed using two-way ANOVA (Audiometry data: frequency and treatment group. Cochleograms: normalized distance from apex and treatment group) followed by Holm-Sidak post-hoc test for multiple comparisons. Results are given as mean±SEM and a p value less than or equal to 0.05 considered significant.
(§6) Baseline line audiometry (ABR and DPOAE measures) was performed for each animal 3 days before acoustic trauma was induced. Subsequently, audiometry measures were repeated 24 h and 14 days after acoustic trauma.
(§7) To quantify and compare the difference in treatment effects between groups while taking into account individual baseline and trauma variability, the hearing loss (ABR threshold shift & DPOAE amplitude loss) at D14 relative to baseline, as well as the functional recovery of hearing from 24 h to D14 (ABR threshold shift & DPOAE amplitude loss) were determined for all treatment groups.

For data set [2] the test system is unchanged. Briefly: Auditory brainstem response (ABR) thresholds after acoustic trauma. In kind it is in vivo, Wistar rats. The method, then:
as §1, §2
For ABR recordings, three stainless steel needle electrodes were placed subdermally over the vertex, the right mastoid and right hind leg of each animal. Tone-pips (5 msec duration presented at a rate of 21/s) at 8, 16 and 24 kHz were delivered to the right ear using a calibrated MF-1 speaker in closed-field configuration (Tucker-Davis Technologies, Alachua, FL, USA) at attenuating intensity until no reproducible response could be recorded. Close to the ABR threshold, the responses to 1000 acoustic stimuli in 5 dB steps were averaged. Responses were low-pass filtered at 3 kHz.
as §3, §4, §5, §6, §7

For a further data set, the system named is outer hair cells. Kind of data set: Outer hair cell loss (cytocochleograms) in cochleae fixed at D14 after acoustic trauma. In kind it is in vivo, Wistar rats. Conditions: cochleae fixed after audiometry on day 14. The method, then: as §3, §4
After audiometry on day 14, animals were deeply anaesthetized with an intraperitoneal injection of pentobarbital (100 mg/kg). The cochleae were removed, fixed with 4% paraformaldehyde, pH 7.4, decalcified with 10% EDTA, pH 7.4 and then stained with myosin VIIa 1/1000. […] The mean loss of OHCs per group was subsequently calculated as a function of normalized distance from the apex in bins of 2.5% of the total length, using the total length of each histological specimen. Cell counts could reliably be obtained for up to 90% of the total distance from the apex (corresponding to the tonotopic region up to from 0 kHz to ~50 kHz in rat, Viberg & Canlon 2004), while the last 10% was too variable due to damage incurred during dissection.
as §5
To further support the conclusions from the functional audiometry data, the loss of outer hair cells in four treatment group was determined by constructing cytocochleograms from histological preparations of cochleae fixed after audiometry on day 14.

In data set [3] the test system is noise-induced hearing loss. The settings on record: Uemaetomari et al. 2005; Bas et al. 2009; cited from earlier work.
Data set [4] in a line: Animal deaths during 14-day repeated treatment in the acoustic trauma study. In kind it is in vivo, Wistar rats. The settings on record: Tacrolimus 1.5 mg/kg i.p. daily for 14 days. The method, then: as §1, §4, §6
FIGS. 2 & 3 illustrate the audiometry measures (ABR thresholds and DPOAE amplitudes) determined for all treatment groups at baseline, 24 h and 14 days after acoustic trauma. For ABR thresholds exceeding 90 dB, a maximal value of 95 dB was attributed. […]

Take `C=CC[C@@H]1/C=C(\C)C[C@H](C)C[C@H](OC)[C@H]2O[C@@](O)(C(=O)C(=O)N3CCCC[C@H]3C(=O)O[C@H](/C(C)=C/[C@@H]3CC[C@@H](O)[C@H](OC)C3)[C@H](C)[C@@H](O)CC1=O)[C@H](C)C[C@@H]2OC` [tacrolimus]: in data set [1], the “DPOAE amplitude loss from baseline to day 14 compared to placebo” value is recorded as “trend towards reduced loss of DPOAE amplitude; also recorded: trends towards improving DPOAE amplitude loss at some frequencies” and the “recovery of DPOAE amplitudes from 24 h post trauma to day 14 compared to placebo” value is given as “improved recovery”. Moreover, the “hearing outcomes (ABR thresholds and DPOAE amplitudes) at 14 days after acoustic trauma compared to placebo” value in data set [2] (i.p. daily for 14 days after acoustic trauma, same doses as E4) is “improvement at some frequencies”. In data set [2] (i.p. daily for 14 days from immediately after 121 dB trauma, azasetron HCl 4.22, ondansetron HCl 4, tropisetron HCl 3.5, granisetron HCl 3.8, Tacrolimus 1.5 mg/kg), the “ABR threshold shift from baseline to day 14 compared to placebo” value was “no major effect”. Also, in the data set with outer hair cells, the “mean loss of outer hair cells compared to placebo” value is recorded as “Neither the granisetron HCl nor the tacrolimus treated groups were significantly different from placebo”. In addition, the “effect on hearing loss in pre-clinical models of noise-induced hearing loss” value in data set [3] is recorded as “reduce hearing loss”. In addition, the “animals that died between treatment initiation and end of the study” value in data set [4] is 5 animals out of 11.
